The target of assay [1] is T1, central CCK-B receptor (Cavia porcellus, UniProt H0VZC5).
T1 construct: Cerebral cortexes of male albino guinea pigs were therefore used; from tissue; host or cells: cerebral cortex membranes of male albino guinea pigs
T1 sequence (H0VZC5 1-426): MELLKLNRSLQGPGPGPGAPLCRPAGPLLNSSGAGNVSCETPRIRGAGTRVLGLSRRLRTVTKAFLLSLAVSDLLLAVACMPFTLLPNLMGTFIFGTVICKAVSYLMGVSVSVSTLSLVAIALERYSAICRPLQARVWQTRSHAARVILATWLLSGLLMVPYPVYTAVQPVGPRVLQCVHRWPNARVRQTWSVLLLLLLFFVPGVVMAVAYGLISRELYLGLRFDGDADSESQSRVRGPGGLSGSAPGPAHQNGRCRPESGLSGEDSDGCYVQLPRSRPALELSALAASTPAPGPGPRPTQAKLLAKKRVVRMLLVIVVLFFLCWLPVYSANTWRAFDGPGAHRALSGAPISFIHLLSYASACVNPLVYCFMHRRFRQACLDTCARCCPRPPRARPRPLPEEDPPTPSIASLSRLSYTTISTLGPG
Nature of the assay: Inhibition of the binding of [3H]-[pBC264]CCK-7 to guinea-pig cortex membranes. The conditions noted are these: for IC50: guinea-pig cortex membranes, 0.2 nM radioligand, read-out: IC50, displacement of [3H][pBC264]CCK-7 from the receptor; for times less active than the corresponding (R) derivative: on average, CCK-B binding. The source says: (§1) [3-H][pBC264]CCK-7 was used to evaluate the ability of the compounds of the invention to interact with the central CCK-B receptor. This ligand has been show: to be selective for the CCK-B receptors since it has an affinity for the cortex (CCK-B) receptors 3 logarithmic orders of magnitude greater than for those of the pancreas (CCK-A) in the guinea pig (C. Durieux et al. Eur. J. Pharmacol. 168 (1989 page 269].
(§2) Cerebral cortexes of male albino guinea pigs were therefore used with the method given above, to obtain a membrane content corresponding to about 300 mcg of proteins/ml incubated with a final concentration of 0.2 nM of radioligand.
(§3) The results obtained for some of the compounds of the invention are shown in Table 2 in which the IC50, that is, the concentration (in micromoles/liter) of the antagonist which can displace 50% of the [3-H](pBC264]CCK-7 from the receptor, is given.

In assay [2] the test system is central CCK-B receptor. The description is as above. Conditions: CCK-B binding (Table 2) compared with CCK-A gall bladder activity.
Excerpt: as §1, §2, §3

The target in assay [3] is T2, type B (CCK-B) gastrin or cholecystokinin receptors (Oryctolagus cuniculus, UniProt P46627).
T2 construct: rabbit gastric mucous-membrane cells were prepared by conventional techniques; endogenous in cells; host or cells: dispersed rabbit gastric mucous-membrane cells (collagenase and pronase)
T2 sequence (P46627 1-452): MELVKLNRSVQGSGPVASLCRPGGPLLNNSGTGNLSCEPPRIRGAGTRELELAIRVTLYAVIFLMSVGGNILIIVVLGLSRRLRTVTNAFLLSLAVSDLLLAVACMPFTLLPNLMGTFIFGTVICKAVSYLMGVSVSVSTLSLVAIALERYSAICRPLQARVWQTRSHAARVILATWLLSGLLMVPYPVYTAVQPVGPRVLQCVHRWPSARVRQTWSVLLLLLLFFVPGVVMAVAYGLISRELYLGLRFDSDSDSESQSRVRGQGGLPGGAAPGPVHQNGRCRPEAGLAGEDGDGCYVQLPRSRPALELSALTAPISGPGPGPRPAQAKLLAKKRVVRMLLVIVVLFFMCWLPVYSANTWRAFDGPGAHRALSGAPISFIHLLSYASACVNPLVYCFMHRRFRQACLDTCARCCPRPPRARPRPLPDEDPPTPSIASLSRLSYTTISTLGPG
Nature of the assay: Inhibition of the increase in cytosol calcium induced by gastrin in rabbit gastric mucous-membrane cells. Conditions: 5×10-8 gastrin. The format is cell-based. An excerpt: The parietal cells of the gastric mucous membrane are responsible for the secretion of HCl. They have specific membrane receptors which can be activated by gastrin and which have been defined as type B (CCK-B) gastrin or cholecystokinin receptors.
Since it has been observed that the activation of CCK-B receptors by gastrin leads to an increase in the level of cytosol calcium ions, a technique of measurement of the increase in intracellular calcium induced by gastrin in the presence and in the absence of the compounds of the invention was used as an indication of the anti-gastrin activity of the compounds.
Suspensions (0.8×10^6 /ml) of rabbit gastric mucous-membrane cells were prepared by conventional techniques with the use of collagenase and pronase as digestive enzymes; the basal [Ca^2+ ]i values, that is, those reached […] stimulation of the cellular system, were estimated in accordance with Grynkiewicz et al [J. Biol. Chem. 260 (1985), 3440]. In the control samples, the cells were stimulated with […], whereas in the samples in which the effect of the compounds of the invention was evaluated, the cells were incubated with these compounds before stimulation with gastrin. The results are expressed as percentage increments of [Ca^2+ ]i with reference to the control value. The anti-gastrin activity of the compounds was expressed as the IC50 value, that is, the concentration (in micromoles/liter) at which the response to the stimulus induced by gastrin was reduced by 50%.

The next assay deals with rat. Nature of the assay: Anxiolytic activity, elevated plus-maze in the rat. The format is in vivo. An excerpt: An important role has in fact recently been postulated for the central CCK-B receptor in anxiety. […] In this experimental model, a compound having anxiolytic activity produces a % increase in the time spent in the open limbs and a % increase in the number of entries to the open limbs.
The results obtained are shown in Table 4 below, in which the activities obtained with various doses of compound 1 administered by an intraperitoneal route (IP) in comparison with a group of animals treated with physiological solution by the same route.

Take `Cc1cc(C)c(NC(=O)C[C@H](CC(=O)O)c2cccc3ccccc23)c(C(=O)N2CCC3(CCCC3)CC2)c1` [Compound 1]: the IC50 at central CCK-B receptor [1] came to 5.1 nM. Also, in the assay on central CCK-B receptor [2], the “affinity for the gastrin receptor (CCK-B) relative to the cholecystokinin receptor (CCK-A)” value is “at least 1000 times”. Further, the “IC50, inhibition of gastrin-induced increase in cytosol calcium” value in assay [3] was determined as 4.3 nM. In addition, in the assay with rat (0.03 mg/kg I.P.), the “% effect Vs controls (entries open limbs/total entries)” value was determined as 32.6%, the “% effect Vs controls (time open limbs/total time)” value was 26.4%, the “Entries open limbs/total entries (%)” value turned out to be 42.2% and the “Time open limbs/total time (%)” value stood at 27.5%. In the assay with rat (0.3 mg/kg I.P.), the “% effect Vs controls (entries open limbs/total entries)” value is recorded as 31.5%, the “% effect Vs controls (time open limbs/total time)” value came out at 50.9%, the “% of time spent in the open limbs vs control group (in words)” value was “this increase is significant” and the “Entries open limbs/total entries (%)” value was found to be 41.8%. Besides, in the assay with rat (0.3 mg/kg I.P., (*) Duncan test p < 0.05 vs control group), the “Time open limbs/total time (%)” value was 32.8%. In the assay with rat (3.0 mg/kg I.P.), the “% effect Vs controls (entries open limbs/total entries)” value is listed as 26.3%, the “% effect Vs controls (time open limbs/total time)” value worked out at 38.5%, the “Entries open limbs/total entries (%)” value is 40.2% and the “Time open limbs/total time (%)” value turned out to be 30.1%. Further, the “% of entries to the open limbs over total entries vs controls (in words)” value in the assay on rat (dose range 0.03-3 mg/kg I.P.) was “increases the % of entries to the open limbs”. Also, in the assay on rat (plus maze, I.P.), the “anxiolytic activity (in words)” value is “shows anxiolytic activity”.
As to `Cc1cc(Cl)c(NC(=O)C[C@H](CC(=O)O)c2cccc3ccccc23)c(C(=O)N2CCC3(CCCC3)CC2)c1` [Compound 2], on central CCK-B receptor [1], the IC50 came to 2.5 nM. The “IC50, inhibition of gastrin-induced increase in cytosol calcium” value in assay [3] amounted to 3.5 nM.
Take `Cc1cc(C)c(NC(=O)C[C@@H](CC(=O)O)c2cccc3ccccc23)c(C(=O)N2CCC3(CCCC3)CC2)c1` [Compound 4]: on central CCK-B receptor [1], the IC50 was found to be 54.7 nM and the “times less active than the corresponding (R) derivative” value is given as roughly 10 times. Further, the “IC50, inhibition of gastrin-induced increase in cytosol calcium” value in assay [3] was determined as 68.8 nM.
Consider `Cc1cc(Cl)c(NC(=O)C[C@@H](CC(=O)O)c2cccc3ccccc23)c(C(=O)N2CCC3(CCCC3)CC2)c1` [Compound 5], for which, at central CCK-B receptor [1], the 50% inhibitory concentration (IC50) stood at 22.9 nM and the “times less active than the corresponding (R) derivative” value is roughly 10 times. In assay [3], the “IC50, inhibition of gastrin-induced increase in cytosol calcium” value stood at 82 nM.

For the origin of these results see patent US6075033A, “Anthranilic acid diamides derivatives, their preparation and pharmaceutical use as anti-gastrin agents” (Rotta Research Laboratorium S.p.A, priority 1996, dated 2000).
